Key:
ABL1 = ABL1 (Homo sapiens, UniProt P00519); experiment: in vitro kinase assay, recombinant ABL1; assay type: biochemical; conditions: ABL versus Src, higher concentration for ABL
Description: The in vitro kinase assays of an IRD (IRD Nos. 10, 11, 13, 61, 70, 71, 79, 80, 83˜87 and 176) were carried out using recombinant proteins according to the procedure disclosed in Nam 2012 (Nam, S., Xie, J., Perkins, A., Ma, Y., Yang, F., Wu, J., Wang, Y., Xu, R. Z., Huang, W., Horne, D. A., and Jove, R. (2012) Novel synthetic derivatives of the natural product berbamine inhibit Jak2/Stat3 signaling and induce apoptosis of human melanoma cells, Molecular oncology), which is hereby incorporated by reference in its entirety, as if fully set forth herein.

[1] = test system: p-Stat5 (Y694) in KCL-22 CML cells; experiment: Western blot p-Stat5, KCL-22 CML cells; assay type: cell-based, human; conditions: 4 hours
Description: (§1) Human KCL-22 CML cells were obtained from the American Type Culture Collection (ATCC). Cells were cultured in RPMI-1640 media containing 10% fetal bovine serum (FBS). Imatinib-resistant human KCL-22 CML cells expressing the T315I mutant Bcr-Abl (KCL-22M) were derived from human KCL-22 CML cells (Yuan et al., 2010). Cells were grown in RPMI 1640 media supplemented with 10% FBS. Monoclonal antibodies to Abl protein and phosphotyrosine (p-Y) were obtained from BD Biosciences (San Diego, Calif.). Polyclonal antibodies to p-Stat5 (Y694) and p-Src family (Y419) were obtained from Cell Signaling Technologies (Cambridge, Mass.). Polyclonal antibodies to Stat5 were from Santa Cruz Biotechnology (Santa Cruz, Calif.). Monoclonal antibody to Src was obtained from Millipore (Billerica, Mass.).
(§2) Western analyses were performed as described previously with minor modification (Nam et al., 2005b). Briefly, KCL-22 CML and T315I KCL-22 CML cells were treated with IRDs. Whole-cell lysates were resolved by SDS-PAGE and immunoblotted with specific antibodies. Primary phospho-specific antibodies were incubated in TBS (pH 7.5) with 0.1% Tween-20 and 5% BSA with gentle agitation overnight at 4° C. […] Positive immuno-reactive proteins were detected using the ECL system (Pierce, Rockford, Ill.). […]

[2] = test system: p-Stat5 (Y694) in T315I KCL-22 CML cells; experiment: Western blot p-Stat5, T315I KCL-22 CML cells; assay type: cell-based, human; conditions: 4 hours
Description: as §1, §2

[3] = test system: p-Src in KCL-22 CML cells; experiment: Western blot p-Src, KCL-22 CML cells; assay type: cell-based, human; conditions: 1.0 μM
Description: as §1, §2

[4] = test system: p-Src in T315I KCL-22 CML cells; experiment: Western blot p-Src, T315I KCL-22 CML cells; assay type: cell-based, human; conditions: 1.0 μM
Description: as §1, §2

[5] = test system: p-Bcr-Abl in KCL-22 CML cells; experiment: Western blot p-Bcr-Abl, KCL-22 CML cells; assay type: cell-based, human; conditions: 4 hours
Description: as §1, §2

[6] = test system: p-Bcr-Abl in T315I KCL-22 CML cells; experiment: Western blot p-Bcr-Abl, T315I KCL-22 CML cells; assay type: cell-based, human; conditions: 4 hours
Description: as §1, §2

[7] = test system: Imatinib-resistant human KCL-22 CML cells expressing the T315I mutant Bcr-Abl; experiment: Drug resistance of imatinib-resistant T315I KCL-22 CML cells; assay type: cell-based

Sequence of ABL1 (P00519 whole entry): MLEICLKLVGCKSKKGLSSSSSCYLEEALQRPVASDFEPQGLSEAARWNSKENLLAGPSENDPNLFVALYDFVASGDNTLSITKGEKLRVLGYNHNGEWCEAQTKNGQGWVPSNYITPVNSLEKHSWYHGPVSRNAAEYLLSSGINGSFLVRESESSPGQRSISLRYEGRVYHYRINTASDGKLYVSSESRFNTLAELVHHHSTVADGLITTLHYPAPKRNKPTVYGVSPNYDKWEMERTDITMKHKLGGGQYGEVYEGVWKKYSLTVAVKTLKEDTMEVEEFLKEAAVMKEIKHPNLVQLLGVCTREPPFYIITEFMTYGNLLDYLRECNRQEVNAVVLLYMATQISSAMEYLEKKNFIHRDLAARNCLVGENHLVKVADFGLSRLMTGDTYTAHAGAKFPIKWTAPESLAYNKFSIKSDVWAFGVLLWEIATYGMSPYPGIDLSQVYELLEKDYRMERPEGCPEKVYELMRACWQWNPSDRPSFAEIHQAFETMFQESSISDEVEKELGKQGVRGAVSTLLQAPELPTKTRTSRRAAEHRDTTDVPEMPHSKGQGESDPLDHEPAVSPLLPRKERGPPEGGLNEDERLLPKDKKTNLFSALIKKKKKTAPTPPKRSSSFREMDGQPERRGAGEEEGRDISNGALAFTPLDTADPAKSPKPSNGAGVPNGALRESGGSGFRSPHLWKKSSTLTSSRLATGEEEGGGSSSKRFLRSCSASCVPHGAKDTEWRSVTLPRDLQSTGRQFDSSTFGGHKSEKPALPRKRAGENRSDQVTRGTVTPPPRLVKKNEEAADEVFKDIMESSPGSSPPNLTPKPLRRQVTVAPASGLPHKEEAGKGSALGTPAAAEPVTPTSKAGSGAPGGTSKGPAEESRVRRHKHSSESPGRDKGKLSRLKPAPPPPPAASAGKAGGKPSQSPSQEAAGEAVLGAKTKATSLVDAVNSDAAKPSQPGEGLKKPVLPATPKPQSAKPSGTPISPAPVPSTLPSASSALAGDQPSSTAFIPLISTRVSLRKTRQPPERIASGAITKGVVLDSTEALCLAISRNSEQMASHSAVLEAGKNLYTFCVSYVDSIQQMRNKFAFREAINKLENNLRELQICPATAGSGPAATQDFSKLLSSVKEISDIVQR

| SMILES | concentration inhibiting ABL kinase activity relative to Src kinase activity in vitro (ABL1) | tyrosyl phosphorylation of Stat5 ([1]; 5 μM) | total Stat5 levels [1] | tyrosyl phosphorylation of Stat5 ([2]; 5 μM) | total Stat5 levels [2] | autophosphorylation of Src [3] | autophosphorylation of Src [4] | concentration that reduced levels of p-Bcr-Abl [5] | concentration that reduced levels of p-Bcr-Abl [6] | resistance of the cells to the drug [7] |
| --- | --- | --- | --- | --- | --- | --- | --- | --- | --- | --- |
| Cl.Cl.O=C1Nc2cc(Br)ccc2C1=C1Nc2ccccc2C1=NOCCN1CCNCC1 [compound 87] | about 15 fold | substantially inhibited | unchanged | substantially inhibited | unchanged | strong reduction | strong reduction | higher than 0.5 μM | higher than 0.5 μM | – |
| Cc1cn(-c2cc(NC(=O)c3ccc(C)c(Nc4nccc(-c5cccnc5)n4)c3)cc(C(F)(F)F)c2)cn1 [nilotinib] | – | – | – | – | – | – | – | – | – | resist |
